According to patent US8372594B2, “Secreted phospholipase A2 biomarkers for arthritis” (Case Western Reserve University, priority 2009, dated 2013):

Key:
[1] = system: several sPLA2 isoforms; assay: inhibition of several sPLA2 isoforms; type: biochemical
[2] = molecular target: T1, sPLA2-IIA (Homo sapiens, UniProt P14555); assay: inhibition of sPLA2-IIA activity; type: biochemical; details: finding of the present invention
T1 sequence (P14555 21-144): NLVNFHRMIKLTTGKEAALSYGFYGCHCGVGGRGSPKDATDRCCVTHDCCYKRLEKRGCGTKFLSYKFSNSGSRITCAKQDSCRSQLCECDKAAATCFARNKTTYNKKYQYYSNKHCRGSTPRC

SMILES	inhibition of the activity of several sPLA2 isoforms [1]	preferential inhibition of sPLA2-IIA [2]
CCc1c(C(=O)C(N)=O)c2c(OCC(=O)O)cc3ccccc3c2n1Cc1ccccc1 [R0050907A]	inhibits the activity of several sPLA2 isoforms	
CCc1c(C(=O)C(N)=O)c2c(OC)cc3ccccc3c2n1Cc1ccccc1 [R0032107A]		preferentially inhibit sPLA2-IIA
CCc1c(C(=O)C(N)=O)c2c(OCC(=O)O)cccc2n1Cc1ccccc1 [Compound B]		preferentially inhibit sPLA2-IIA
